# Laboratory results taken from patent US9751887B2, “Imidazo[1,2-b]pyridazine derivatives as kinase inhibitors” (Daiichi Sankyo Company, Limited, priority 2012, dated 2017).
# pIC50: −log10 of the molar value.
# How the values were obtained:
# ROS1 [1] = molecular target: T1, ROS1 (Homo sapiens, UniProt P08922); assay: ROS1 kinase inhibitory activity evaluation (mobility shift, EZ Reader II); format: biochemical; settings: ROS1 25 pg/μL, FL-Peptide 22 substrate, three separate measurements
# T1 construct: purchased Carna Biosciences 08-163
# Description: Next, a substrate reaction solution was prepared. […] Then, the reaction stop solution was added thereto at a concentration of 40 μL/well. Substrate phosphorylation intensity was measured using EZ Reader II (Caliper Life Sciences).
# ROS1 [2] = molecular target: T1, ROS1; assay: ROS1 autophosphorylation inhibitory activity evaluation (ADP-Glo); format: biochemical; settings: 200 nM inactive ROS1, ATP 1 mM, 25° C. 1.5 hours, ADP generated, four separate measurements
# Description: Fifty mM HEPES (pH 7.5), 10 mM MgCl2, 0.01% Brij-58, and 2.5 mM DTT were mixed to prepare an enzymatic reaction solution. […] ATP (final concentration: 1 mM) was further added thereto at a concentration of 2.5 μL/well. The resulting plate was left standing at 25° C. for 1.5 hours to cause enzymatic reaction. After the completion of enzymatic reaction, ADP-Glo Reagent-1 (Promega, V9103) was added thereto at a concentration of 2.5 μL/well, and the plate was left standing at room temperature for 60 minutes. Then, ADP-Glo Reagent-2 (Promega) was added thereto at a concentration of 5 μL/well, and the plate was left standing at room temperature for 60 minutes. The amount of ADP generated by the autophosphorylation of ROS1 was measured using EnVision (PerkinElmer Japan). The amount of ADP generated in four separate measurements was defined as the autophosphorylation intensity of ROS1. IC50 values were calculated by curve fitting using GraphPad Prism version 4 (GraphPad software).
# [3] = system: HCC78 cells having ROS1 fusion gene; assay: HCC78 cell growth assay (CellTiter-Glo); format: cell-based; settings: Homo sapiens, HCC78, 72 h, 72 hours culture, 2% FBS medium, luminescence, four separate measurements; read-out: growth inhibitory effect on HCC78 cells having ROS1 fusion gene IC50
# Description: Each compound of the present invention was assayed for its cell growth inhibitory effect using HCC78 cells having ROS1 fusion gene.
# The suspension was dispensed at a concentration of 100 μL/well to a 96-well culture plate for cell culture (SUMITOMO BAKELITE, Cat No MS-0096S) (hereinafter, referred to as an assay plate). […] In this context, the final concentration of DMSO was set to 0.4%. Then, the cells were cultured for 72 hours in a CO2 incubator.
# CellTiter-Glo Luminescent Cell Viability Assay reagent (Promega, Cat No G7571) was dispensed at a concentration of 100 μL/well to the assay plate. The contents in each well were reacted at room temperature for 10 minutes while stirred using a plate mixer. […] The luminescence intensity of each well was measured using EnVision. The luminescence intensity of each well obtained in four separate measurements was defined as the number of cells. IC50 values were calculated by curve fitting using GraphPad Prism version 4.
# T1 sequence (P08922 28-2347): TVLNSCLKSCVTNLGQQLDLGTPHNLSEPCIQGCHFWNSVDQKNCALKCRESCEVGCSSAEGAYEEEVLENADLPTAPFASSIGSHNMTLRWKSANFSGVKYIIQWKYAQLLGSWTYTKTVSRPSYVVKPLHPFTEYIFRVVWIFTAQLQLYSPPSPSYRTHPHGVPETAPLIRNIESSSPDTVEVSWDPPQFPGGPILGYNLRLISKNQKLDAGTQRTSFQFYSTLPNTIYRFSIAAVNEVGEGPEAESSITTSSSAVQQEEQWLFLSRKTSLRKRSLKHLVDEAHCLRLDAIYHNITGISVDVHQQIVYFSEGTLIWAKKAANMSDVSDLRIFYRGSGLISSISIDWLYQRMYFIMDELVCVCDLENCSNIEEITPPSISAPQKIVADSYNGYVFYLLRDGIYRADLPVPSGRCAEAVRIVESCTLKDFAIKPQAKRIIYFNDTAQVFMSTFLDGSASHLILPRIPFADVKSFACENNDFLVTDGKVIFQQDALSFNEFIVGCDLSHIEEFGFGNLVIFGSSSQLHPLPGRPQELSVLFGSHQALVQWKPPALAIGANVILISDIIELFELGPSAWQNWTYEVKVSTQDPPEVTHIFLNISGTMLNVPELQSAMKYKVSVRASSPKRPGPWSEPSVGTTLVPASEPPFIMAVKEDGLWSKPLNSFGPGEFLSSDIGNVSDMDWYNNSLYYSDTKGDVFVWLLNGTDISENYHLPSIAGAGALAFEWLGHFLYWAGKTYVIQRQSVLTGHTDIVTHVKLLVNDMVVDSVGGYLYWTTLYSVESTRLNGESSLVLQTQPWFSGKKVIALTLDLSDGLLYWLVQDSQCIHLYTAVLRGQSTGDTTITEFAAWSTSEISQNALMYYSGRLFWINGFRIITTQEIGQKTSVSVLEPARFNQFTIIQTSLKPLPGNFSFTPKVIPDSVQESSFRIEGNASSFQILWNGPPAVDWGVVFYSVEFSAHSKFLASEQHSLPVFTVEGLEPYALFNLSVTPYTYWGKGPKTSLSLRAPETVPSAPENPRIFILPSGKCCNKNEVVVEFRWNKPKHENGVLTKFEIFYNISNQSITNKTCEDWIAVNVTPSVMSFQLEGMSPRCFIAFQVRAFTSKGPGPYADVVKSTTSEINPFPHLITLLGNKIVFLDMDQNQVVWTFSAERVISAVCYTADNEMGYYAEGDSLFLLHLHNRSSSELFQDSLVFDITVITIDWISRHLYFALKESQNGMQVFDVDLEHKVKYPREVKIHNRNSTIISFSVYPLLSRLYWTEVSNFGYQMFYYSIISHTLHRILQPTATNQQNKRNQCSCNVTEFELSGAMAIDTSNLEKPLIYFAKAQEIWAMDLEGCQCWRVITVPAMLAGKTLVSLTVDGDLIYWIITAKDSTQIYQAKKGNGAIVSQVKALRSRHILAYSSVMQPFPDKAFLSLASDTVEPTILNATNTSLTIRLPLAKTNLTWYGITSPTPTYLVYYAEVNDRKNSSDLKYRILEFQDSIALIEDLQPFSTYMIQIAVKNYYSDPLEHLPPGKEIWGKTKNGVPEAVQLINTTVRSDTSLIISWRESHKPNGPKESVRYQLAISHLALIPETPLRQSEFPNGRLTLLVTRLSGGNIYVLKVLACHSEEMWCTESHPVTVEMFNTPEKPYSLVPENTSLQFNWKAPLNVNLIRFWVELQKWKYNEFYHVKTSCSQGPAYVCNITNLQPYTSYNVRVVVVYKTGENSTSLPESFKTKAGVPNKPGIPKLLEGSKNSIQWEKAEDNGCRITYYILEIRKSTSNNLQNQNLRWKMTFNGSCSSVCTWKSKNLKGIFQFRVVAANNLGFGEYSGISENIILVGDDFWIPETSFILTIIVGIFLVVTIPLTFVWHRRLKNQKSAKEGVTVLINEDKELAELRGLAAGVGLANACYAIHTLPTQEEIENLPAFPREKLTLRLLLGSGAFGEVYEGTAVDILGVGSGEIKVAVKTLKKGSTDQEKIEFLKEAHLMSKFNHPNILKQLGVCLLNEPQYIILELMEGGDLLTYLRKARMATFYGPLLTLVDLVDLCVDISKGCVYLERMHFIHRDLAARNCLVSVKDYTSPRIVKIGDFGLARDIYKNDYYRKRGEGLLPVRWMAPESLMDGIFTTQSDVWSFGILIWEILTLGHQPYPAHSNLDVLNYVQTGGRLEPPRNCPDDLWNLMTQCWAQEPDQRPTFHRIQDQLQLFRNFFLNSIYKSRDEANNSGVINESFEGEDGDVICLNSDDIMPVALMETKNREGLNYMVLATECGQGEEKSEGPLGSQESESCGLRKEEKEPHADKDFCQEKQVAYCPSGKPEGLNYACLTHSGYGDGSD
Structure (SMILES),pIC50 (ROS1 [1]),pIC50 (ROS1 [2]),pIC50 [3]
"CN(Cc1cncc(Cl)c1)c1ccc2ncc(-c3ccc(N4CC(C)(N)CC4=O)cc3)n2n1 (stereo not drawn) [Example 123, 4-Amino-1-[4-[6-[(5-chloro-3-pyridyl)methyl-methylamino]imidazo[1,2-b]pyridazin-3-yl]phenyl]-4-methylpyrrolidin-2-one]",7.22 to 8.00,6.82 to 7.00,7.00 to 7.70
"c1ccc(CNc2ccc3ncc(-c4ccc(OC[C@@H]5CCCN5)cc4)n3n2)cc1 [Example 1, N-Benzyl-3-[4-[[(2S)-pyrrolidin-2-yl]methoxy]phenyl]imidazo[1,2-b]pyridazin-6-amine]",8.00 to 9.00,7.00 to 7.70,7.00 to 7.70
"C[C@@H](Nc1ccc2ncc(-c3ccc(OCC4(N)CC4)cc3)n2n1)c1cccc(F)c1 [Example 39, 3-[4-[(1-Aminocyclopropyl)methoxy]phenyl]-N-[(1R)-1-(3-fluorophenyl)ethyl]imidazo[1,2-b]pyridazin-6-amine]",> 9.00,> 7.70,7.00 to 7.70
"C[C@@H](Nc1ccc2ncc(-c3ccc(OC4CNC4)cc3)n2n1)c1cccc(F)c1 [Example 25, 3-[4-(Azetidin-3-yloxy)phenyl]-N-[(1R)-1-(3-fluorophenyl)ethyl]imidazo[1,2-b]pyridazin-6-amine]",8.00 to 9.00,> 7.70,7.00 to 7.70
"CC(Oc1ccc2ncc(-c3ccc(N4C[C@@H](N)CC4=O)cc3)n2n1)c1cccc(F)c1F (stereo partly drawn) [Example 102, (4S)-4-Amino-1-[4-[6-[1-(2,3-difluorophenyl)ethoxy]imidazo[1,2-b]pyridazin-3-yl]phenyl]pyrrolidin-2-one]",8.00 to 9.00,> 7.70,6.22 to 7.00
"C[C@@H](Nc1ccc2ncc(-c3ccc(OC[C@@H](N)[C@@H](C)O)cc3)n2n1)c1cccc(F)c1 [Example 54, (2R,3R)-3-Amino-4-[4-[6-[[(1R)-1-(3-fluorophenyl)ethyl]amino]imidazo[1,2-b]pyridazin-3-yl]phenoxy]butan-2-ol]",> 9.00,> 7.70,> 7.70
"NC1CCN(c2ccc(-c3cnc4ccc(OCc5cccc(F)c5)nn34)cc2)C1=O (stereo not drawn) [Example 75, 3-Amino-1-[4-[6-[(3-fluorophenyl)methoxy]imidazo[1,2-b]pyridazin-3-yl]phenyl]pyrrolidin-2-one]",8.00 to 9.00,7.00 to 7.70,6.22 to 7.00
"C[C@@H](Nc1ccc2ncc(-c3ccc(OC[C@@H]4CCNC4)cc3)n2n1)c1cccc(F)c1 [Example 23, N-[(1R)-1-(3-Fluorophenyl)ethyl]-3-[4-[[(3R)-pyrrolidin-3-yl]methoxy]phenyl]imidazo[1,2-b]pyridazin-6-amine]",> 9.00,> 7.70,6.22 to 7.00
"N[C@H]1CC(=O)N(c2ccc(-c3cnc4ccc(OCc5cccc(F)c5)nn34)cc2)C1 [Example 76, (4S)-4-Amino-1-[4-[6-[(3-fluorophenyl)methoxy]imidazo[1,2-b]pyridazin-3-yl]phenyl]pyrrolidin-2-one]",> 9.00,> 7.70,7.00 to 7.70
"CN(Cc1cncc(F)c1)c1ccc2ncc(-c3ccc(N4CC(C)(N)CC4=O)cc3)n2n1 (single isomer, unassigned) [Example 124, 4-Amino-1-[4-[6-[(5-fluoro-3-pyridyl)methyl-methylamino]imidazo[1,2-b]pyridazin-3-yl]phenyl]-4-methylpyrrolidin-2-one]",8.00 to 9.00,> 7.70,> 7.70
"C[C@@H](Nc1ccc2ncc(-c3ccc(OC[C@@H](N)CO)cc3)n2n1)c1cccc(F)c1 [Example 56, (2S)-2-Amino-3-[4-[6-[[(1R)-1-(3-fluorophenyl)ethyl]amino]imidazo[1,2-b]pyridazin-3-yl]phenoxy]propan-1-ol]",> 9.00,> 7.70,> 7.70
"CN(Cc1cc(F)ccc1Cl)c1ccc2ncc(-c3ccc(N4C[C@@H](N)CC4=O)cc3)n2n1 [Example 99, (4S)-4-Amino-1-[4-[6-[(2-chloro-5-fluorophenyl)methyl-methylamino]imidazo[1,2-b]pyridazin-3-yl]phenyl]pyrrolidin-2-one]",8.00 to 9.00,7.00 to 7.70,7.00 to 7.70
"C[C@H](O)[C@@H](N)COc1ccc(-c2cnc3ccc(N[C@H](C)c4cccc(F)c4)nn23)cc1 [Example 55, (2S,3S)-3-Amino-4-[4-[6-[[(1R)-1-(3-fluorophenyl)ethyl]amino]imidazo[1,2-b]pyridazin-3-yl]phenoxy]butan-2-ol]",> 9.00,> 7.70,> 7.70
"CN(Cc1cccc(F)c1)c1ccc2ncc(-c3ccc(N4CC(C)(N)CC4=O)cc3)n2n1 (single isomer, unassigned) [Example 87, 4-Amino-1-[4-[6-[(3-fluorophenyl)methyl-methylamino]imidazo[1,2-b]pyridazin-3-yl]phenyl]-4-methylpyrrolidin-2-one]",8.00 to 9.00,7.00 to 7.70,7.00 to 7.70
"C[C@@H](Nc1ccc2ncc(-c3ccc(OCC(N)CO)cc3)n2n1)c1cccc(F)c1 (stereo partly drawn) [Example 45, 2-Amino-3-[4-[6-[[(1R)-1-(3-fluorophenyl)ethyl]amino]imidazo[1,2-b]pyridazin-3-yl]phenoxy]propan-1-ol]",> 9.00,> 7.70,> 7.70
"C[C@@H](Nc1ccc2ncc(-c3ccc(N4C[C@@H](N)CC4=O)cc3)n2n1)c1ccccc1 [Example 88, (4S)-4-Amino-1-[4-[6-[[(1R)-1-phenylethyl]amino]imidazo[1,2-b]pyridazin-3-yl]phenyl]pyrrolidin-2-one]",> 9.00,> 7.70,> 7.70
"CCN(Cc1ccccc1)c1ccc2ncc(-c3ccc(N4C[C@@H](N)CC4=O)cc3)n2n1 [Example 95, (4S)-4-Amino-1-[4-[6-[benzo(ethyl)amino]imidazo[1,2-b]pyridazin-3-yl]phenyl]pyrrolidin-2-one]",8.00 to 9.00,7.00 to 7.70,6.22 to 7.00
CNCCCOc1ccc(-c2cnc3ccc(N[C@H](C)c4cccc(F)c4)nn23)cc1 [Example 31],8.00 to 9.00,> 7.70,7.00 to 7.70
"CC(Oc1ccc2ncc(-c3ccc(N4C[C@@H](N)CC4=O)cc3)n2n1)c1cc(Cl)n(C)n1 (stereo partly drawn) [Example 113, (4S)-4-Amino-1-[4-[6-[1-(5-chloro-1-methylpyrazol-3-yl)ethoxy]imidazo[1,2-b]pyridazin-3-yl]phenyl]pyrrolidin-2-one]",8.00 to 9.00,> 7.70,> 7.70
"C[C@@H](Nc1ccc2ncc(-c3ccc(OCCN(C)C)cc3)n2n1)c1cccc(F)c1 [Example 69, 3-[4-(2-Dimethylaminoethoxy)phenyl]-N-[(1R)-1-(3-fluorophenyl)ethyl]imidazo[1,2-b]pyridazin-6-amine]",> 9.00,> 7.70,> 7.70
"C[C@@H](Oc1ccc2ncc(-c3ccc(OC4CCNCC4)cc3)n2n1)c1cccc(F)c1 [Example 15, 6-[(1R)-1-(3-Fluorophenyl)ethoxy]-3-[4-(4-piperidyloxy)phenyl]imidazo[1,2-b]pyridazine]",8.00 to 9.00,7.00 to 7.70,6.22 to 7.00
"CN(Cc1cccc(F)c1)c1ccc2ncc(-c3ccc(N4C[C@@H](N)CC4=O)c(F)c3)n2n1 [Example 83, (4S)-4-Amino-1-[2-fluoro-4-[6-[(3-fluorophenyl)methyl-methylamino]imidazo[1,2-b]pyridazin-3-yl]phenyl]pyrrolidin-2-one]",8.00 to 9.00,7.00 to 7.70,7.00 to 7.70
"C[C@@H](Nc1ccc2ncc(-c3ccc(O[C@@H]4CCNC4)cc3)n2n1)c1cccc(F)c1 [Example 22, N-[(1R)-1-(3-Fluorophenyl)ethyl]-3-[4-[(3R)-pyrrolidin-3-yl]oxyphenyl]imidazo[1,2-b]pyridazin-6-amine]",> 9.00,> 7.70,7.00 to 7.70
"C[C@@H](Nc1ccc2ncc(-c3cccc(OCCN)c3)n2n1)c1cccc(F)c1 [Example 67, 3-[3-(2-Aminoethoxy)phenyl]-N-[(1R)-1-(3-fluorophenyl)ethyl]imidazo[1,2-b]pyridazin-6-amine]",8.00 to 9.00,> 7.70,7.00 to 7.70
"CNCCOc1ccc(-c2cnc3ccc(N[C@H](C)c4cccc(F)c4)nn23)cn1 [Example 46, N-[(1R)-1-(3-Fluorophenyl)ethyl]-3-[6-[2-(methylamino)ethoxy]-3-pyridyl]imidazo[1,2-b]pyridazin-6-amine]",> 9.00,> 7.70,> 7.70
